Laboratory results published in ChEMBL document CHEMBL5042543, “Bridged Piperidine Analogues of a High Affinity Naphthalene-Based P2Y14R Antagonist” (J Med Chem, 2022).
Values after ≈ are worked out from the molar mass of the structure shown.

How the values were obtained:
[1] = Plasma protein binding in rat assessed as bound fraction; format: ADME, cell-free
[2] = Aqueous solubility of the compound at pH 4; conditions: buffer
[3] = Stability in rat liver microsomes assessed as half life; format: ADME, Microsome
[4] = Plasma protein binding in human assessed as bound fraction; format: ADME, cell-free
[5] = Half life in Wistar rat at 1 mg/kg, ip; format: ADME, organism-based; conditions: in vivo
[6] = Stability of the compound in simulated gastric fluid assessed as parent compound remaining at 120 mins by NMR analysis; format: ADME; conditions: simulated gi fluid, 2 h
[7] = Stability in mouse liver microsomes assessed as half life; format: ADME, Microsome
[8] = Toxicity in Hsd:ICR (CD-1) mouse at 10 micromol/kg, ip; conditions: in vivo, dose 10 µmol/kg
[9] = Stability in human liver microsomes assessed as half life; format: ADME, Microsome
[10] = Stability in rat plasma assessed as compound remaining after 120 mins; format: ADME, cell-free; conditions: 2 h
[11] = Half life in Wistar rat at 0.5 mg/kg, iv; format: ADME, organism-based; conditions: in vivo
[12] = Distribution coefficient, logD of compound at pH 7.4 by HPLC analysis; format: physicochemical; conditions: octanol/water
[13] = Plasma protein binding in mouse assessed as bound fraction; format: ADME, cell-free
[14] = target: Sigma intracellular receptor 2 (Homo sapiens, UniProt Q5BJF2); experiment: Inhibition of sigma 2 receptor (unknown origin) assessed as binding constant
[15] = Stability of the compound in simulated intestinal fluid assessed as parent compound remaining at 120 mins; format: ADME; conditions: simulated gi fluid, 2 h
[16] = Stability in mouse plasma assessed as compound remaining after 120 mins; format: ADME, cell-free; conditions: 2 h
[17] = tested on: HepG2; experiment: Cytotoxicity against human HepG2 cells; format: toxicity, cell-based
[18] = target: T1, Muscarinic acetylcholine receptor M1 (Homo sapiens, UniProt P11229); experiment: Inhibition of muscarinic M1 receptor (unknown origin) assessed as binding constant
T1 sequence (P11229 whole entry): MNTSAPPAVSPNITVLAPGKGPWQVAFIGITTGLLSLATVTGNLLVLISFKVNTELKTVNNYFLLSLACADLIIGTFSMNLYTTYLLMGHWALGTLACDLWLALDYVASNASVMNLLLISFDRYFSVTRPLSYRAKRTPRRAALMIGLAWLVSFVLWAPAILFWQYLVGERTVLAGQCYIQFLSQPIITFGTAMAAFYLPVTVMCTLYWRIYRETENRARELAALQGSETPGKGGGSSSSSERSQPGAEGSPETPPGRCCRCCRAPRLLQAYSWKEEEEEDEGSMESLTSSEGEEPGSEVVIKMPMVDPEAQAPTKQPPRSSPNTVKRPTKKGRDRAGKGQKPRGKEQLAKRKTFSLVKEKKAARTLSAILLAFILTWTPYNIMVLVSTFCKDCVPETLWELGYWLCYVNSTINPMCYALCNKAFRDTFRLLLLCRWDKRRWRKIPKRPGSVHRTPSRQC

[19] = target: Sodium-dependent serotonin transporter (Homo sapiens, UniProt P31645); experiment: Inhibition of SERT receptor (unknown origin) assessed as binding constant
[20] = target: T2, liver carboxylesterase (Sus scrofa, UniProt Q29550); experiment: Stability of the compound in aqueous medium at pH 7.4 assessed as half life in presence of porcine liver esterase; format: physicochemical; conditions: pig
T2 sequence (Q29550 whole entry): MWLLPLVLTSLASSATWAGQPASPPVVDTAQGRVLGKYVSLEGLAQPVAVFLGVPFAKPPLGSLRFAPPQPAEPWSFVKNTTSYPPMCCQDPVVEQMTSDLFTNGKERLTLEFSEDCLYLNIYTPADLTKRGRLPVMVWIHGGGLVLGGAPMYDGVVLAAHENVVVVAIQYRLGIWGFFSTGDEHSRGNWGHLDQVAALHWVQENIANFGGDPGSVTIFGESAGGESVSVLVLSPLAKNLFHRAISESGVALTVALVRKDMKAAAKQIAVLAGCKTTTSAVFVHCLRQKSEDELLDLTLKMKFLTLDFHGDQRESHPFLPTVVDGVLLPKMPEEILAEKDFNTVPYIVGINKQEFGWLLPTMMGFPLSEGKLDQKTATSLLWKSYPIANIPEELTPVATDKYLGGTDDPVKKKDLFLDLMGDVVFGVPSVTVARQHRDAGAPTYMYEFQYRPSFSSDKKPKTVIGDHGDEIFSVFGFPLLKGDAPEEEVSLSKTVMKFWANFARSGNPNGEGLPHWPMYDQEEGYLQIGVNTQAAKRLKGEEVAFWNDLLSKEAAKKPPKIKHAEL

[21] = Plasma protein binding in rat assessed as compound remaining at 5 hrs; format: ADME, cell-free
[22] = Prodrug conversion in aqueous medium at pH 7.4 assessed as conversion of 4-(4-((1S,4S,5S)-2-(Ethoxycarbonyl)-2-azabicyclo[2.2.1]heptan-5-yl)phenyl)-7-(4-(trifluoro-methyl)phenyl)-2-naphthoic acid at 72 hrs by HPLC analysis; format: ADME; conditions: buffer, pH 7.4, 72 h
[23] = Plasma protein binding in mouse assessed as compound remaining at 5 hrs; format: ADME, cell-free

Sigma intracellular receptor 2, sequence (Q5BJF2 whole entry): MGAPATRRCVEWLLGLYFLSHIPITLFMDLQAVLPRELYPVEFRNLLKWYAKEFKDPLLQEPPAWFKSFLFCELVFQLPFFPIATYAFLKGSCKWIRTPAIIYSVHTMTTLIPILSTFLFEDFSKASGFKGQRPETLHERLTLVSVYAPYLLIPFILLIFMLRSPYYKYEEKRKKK
Sodium-dependent serotonin transporter, sequence (P31645 whole entry): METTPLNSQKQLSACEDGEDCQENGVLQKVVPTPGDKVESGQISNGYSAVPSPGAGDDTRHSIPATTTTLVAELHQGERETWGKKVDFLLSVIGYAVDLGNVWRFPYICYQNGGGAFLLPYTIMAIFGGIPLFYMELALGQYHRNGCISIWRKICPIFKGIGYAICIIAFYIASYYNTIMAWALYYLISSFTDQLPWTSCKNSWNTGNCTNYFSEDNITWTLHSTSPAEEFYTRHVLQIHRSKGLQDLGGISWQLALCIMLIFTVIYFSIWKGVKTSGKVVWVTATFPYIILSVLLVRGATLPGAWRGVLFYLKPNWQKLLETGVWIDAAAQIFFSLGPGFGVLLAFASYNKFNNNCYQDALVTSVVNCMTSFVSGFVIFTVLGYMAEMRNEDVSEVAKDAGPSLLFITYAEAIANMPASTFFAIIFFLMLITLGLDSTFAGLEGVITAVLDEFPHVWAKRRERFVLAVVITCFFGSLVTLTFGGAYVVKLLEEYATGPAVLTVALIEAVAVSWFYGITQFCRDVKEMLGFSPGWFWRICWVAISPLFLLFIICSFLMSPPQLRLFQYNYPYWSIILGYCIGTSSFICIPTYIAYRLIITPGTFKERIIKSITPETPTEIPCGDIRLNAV

O=C(O)c1cc(-c2ccc([C@H]3C[C@H]4C[C@@H]3CN4)cc2)c2ccc(-c3ccc(C(F)(F)F)cc3)cc2c1
PPB [1]: 99.79% | solubility [2]: 1.22 µg/mL (≈ 2.5 µM) | t1/2 [3]: 1.52 h | PPB [4]: 87.98% | half-life [5]: 8.94 h | Stability [6]: 100% | t1/2 [7]: 4.05 h | Activity [8]: Non-Toxic | t1/2 [9]: 4.67 h | Stability [10]: 82.8% | half-life [11]: 7.24 h | logD [12]: 1.9 | PPB [13]: 99.76% | Ki [14]: 710 nM | Stability [15]: 99.1% | Stability [16]: 100% | IC50 [17]: 11000 nM

CN(C)C(=O)COC(=O)c1cc(-c2ccc([C@H]3C[C@H]4C[C@@H]3CN4)cc2)c2ccc(-c3ccc(C(F)(F)F)cc3)cc2c1
Ki [18]: > 1000 nM | Ki [19]: > 1000 nM | PPB [4]: 99.7% | half-life [20]: > 72 h | Fu [21]: 0.72% | Drug metabolism [22]: 59% | Fu [23]: 0% | Ki [14]: 390 nM
